According to publication PMC11784839, “Monoaminergic neurotransmitters are bimodal effectors of tau aggregation” (Science Advances, 2025):
*1 amine or outer side, *2 acyl side, *3 side chain or, on linkers, in order; H or OH if unused. Where a SMILES comes first, the peptide text is derived from it. Bridges are numbered along the chain shown (N, C = ends). [ ]: non-standard residue; d: D form. hTyr(3S-OH,4S-OH,3'-OSO3H) = N[C@H](C(=O)O)[C@H](O)[C@@H](O)c1ccc(O)c(OS(=O)(=O)O)c1; Orn(4R-OH,5R-OH) = O=C([C@H](C[C@@H](O)[C@@H](O)N[*:3])N[*:1])[*:2]; Pro(3S-OH,4S-Me) = C[C@H]1CN[C@H](C(=O)O)[C@H]1O; Gln(3R-OH) = NC(=O)C[C@@H](O)[C@H](N)C(=O)O; Hyp = O=C(O)[C@@H]1C[C@@H](O)CN1

Target: tau (Homo sapiens, UniProt P10636)
Assay: MCE Phenols Library screening, tau biosensor cell seeding assay (AvZ)
Format: cell-based
Settings: for Z repl 1 / Z Repl 2: Z score; for Z repl 1 / raw data 1: replicate 1; for Z Repl 2 / raw data 2: replicate 2; for AvZ (average z score of seeding, SDs from the mean level of seeding): 10 μM phenol in cell cultures, AD brain homogenate preincubated 16 hours, two biological replicates, positive = catalyzes seeding, negative = inhibits
[1] = average Z score of the two replicates, MCE Phenols Library screen
[2] = average puncta of the two replicates
[3] = average Z score of the two replicates, tau biosensor seeding, MCE Phenols Library screen
[4] = average Z score of two replicates, Phenols Library screen
[5] = average Z score of the two replicates, tau seeding

tau, sequence (P10636 623-695 limits assumed): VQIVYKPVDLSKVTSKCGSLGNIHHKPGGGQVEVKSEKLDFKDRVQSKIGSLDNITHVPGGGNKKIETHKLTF

Z repl 1 | Z Repl 2 | av Z [1] | av puncta (average of raw data 1 and 2) | raw data 1 (puncta) | raw data 2 (puncta) | AvZ (average z score of seeding, SDs from the mean level of seeding) | av puncta [2] | av Z [3] | av Z [4] | raw data 1 (raw puncta) | raw data 2 (raw puncta) | av Z [5] | Compound
-0.765 | -0.196 | -0.481 |  | 17163.5 | 10668.8 |  | 13916.2 |  |  |  |  |  | COc1cc(/C=C/C(=O)O[C@H]2[C@H](O)[C@@H](CO)O[C@@]2(CO)O[C@H]2O[C@H](CO)[C@@H](O)[C@H](O)[C@H]2O)ccc1O [Sibiricose A5]
1.095 | 0.887 |  | 30866.7 | 39497.8 | 22235.7 |  |  | 0.991 |  |  |  |  | C[C@@H](O)[C@@H]1NC(=O)[C@@H](N)C[C@@H](O)[C@@H](O)NC(=O)[C@@H]2[C@@H](O)[C@@H](C)CN2C(=O)[C@H]([C@H](O)CC(N)=O)NC(=O)[C@H]([C@H](O)[C@@H](O)c2ccc(O)c(OS(=O)(=O)O)c2)NC(=O)[C@@H]2C[C@@H](O)CN2C1=O [FR179642] (H-[Orn(4R-OH,5R-OH)]T[Hyp][hTyr(3S-OH,4S-OH,3'-OSO3H)][Gln(3R-OH)][Pro(3S-OH,4S-Me)]; lactam 1-C)
-0.439 | 0.604 |  | 20150.3 | 21083.3 | 19217.2 |  |  |  | 0.083 |  |  |  | COc1cc2c(=O)c3c(O)c([C@@H]4O[C@H](CO[C@@H]5OC[C@](O)(CO)[C@H]5O)[C@@H](O)[C@H](O)[C@H]4O)c(O)cc3oc2cc1O [Polygalaxanthone III]
0.101 | 0.444 |  | 22534.1 | 27565 | 17503.1 | 0.272 |  |  |  |  |  |  | COc1ccc(C(C)=O)c(O)c1 [Paeonol]
0.554 | 1.188 |  | 29224.4 | 32994.7 | 25454.1 |  |  | 0.871 |  |  |  |  | COc1ccc(-c2coc3cc(O)c(OC)c(O)c3c2=O)cc1 [Irisolidone]
-0.244 | -0.19 | -0.217 |  |  |  |  | 17083.5 |  |  | 23425.5 | 10741.6 |  | COc1cc2oc3cc(O)c(OC)c(CC=C(C)C)c3c(=O)c2c(O)c1CC=C(C)C [beta-Mangostin]
-0.67 |  | -0.921 | 9279.59 | 18310.3 | 248.899 |  |  |  |  |  |  |  | O=c1c(O)cc([C@H]2Oc3cc(O)cc(O)c3C[C@H]2O)cc2c([C@H]3Oc4cc(O)cc(O)c4C[C@H]3O)cc(O)c(O)c12 [Theaflavin]
-0.257 | -1.004 | -0.63 |  | 23269.5 | 2047.37 |  | 12658.4 |  |  |  |  |  | COc1ccc2c(c1OC)O[C@H]1c3ccc(O)cc3OC[C@@H]21 [Methylnissolin]
-1.043 | -0.067 | -0.555 |  | 13826.2 | 12045.1 |  | 12935.6 |  |  |  |  |  | O=c1oc2c(O)c(O)cc3c(=O)oc4c(O)c(O)cc1c4c23 [Ellagic acid]
0.582 | -0.181 |  | 22081.1 | 33332 | 10830.3 |  |  |  |  |  |  | 0.2 | CC(C)=CCc1c(O[C@@H]2O[C@H](CO)[C@@H](O)[C@H](O)[C@H]2O)cc(O)c2c(=O)c(O[C@@H]3O[C@@H](C)[C@H](O)[C@@H](O)[C@H]3O)c(-c3ccc(O)cc3)oc12 [Epimedoside A]
-0.355 | -0.816 | -0.586 |  | 22084.8 | 4048.5 |  | 13066.7 |  |  |  |  |  | Oc1ccc(/C=C/c2cc(O)cc(O)c2)cc1 [Resveratrol]
0.113 | -0.367 |  | 18275.8 | 27700.1 | 8851.57 |  |  |  | -0.127 |  |  |  | Cc1cc(O)c2c(c1)C(=O)c1cc(O)cc(O[C@@H]3O[C@H](CO)[C@@H](O)[C@H](O)[C@H]3O)c1C2=O [Emodin-8-glucoside]
0.02 | -0.843 | -0.411 |  |  |  |  | 15180.1 |  |  | 26593.3 | 3766.89 |  | CC1OC(OCC2OC(Oc3c(-c4ccc(O)cc4)oc4cc(OC5OC(C)C(O)C(O)C5O)cc(O)c4c3=O)C(O)C(O)C2O)C(O)C(O)C1O (centres unmarked) [Robinin]
0.421 | -0.356 |  | 20180.4 | 31398.7 | 8962.19 |  |  |  | 0.032 |  |  |  | O=c1c(O[C@@H]2O[C@H](CO[C@@H]3O[C@H](CO)[C@@H](O)[C@H](O)[C@H]3O)[C@@H](O)[C@H](O)[C@H]2O)c(-c2ccc(O)cc2)oc2cc(O)cc(O)c12 [Kaempferol 3-O-gentiobioside]
-1.702 | -1.085 | -1.394 | 3543.97 | 5911.71 | 1176.23 |  |  |  |  |  |  |  | O=c1c(O)c(-c2ccc(O)cc2O)oc2cc(O)cc(O)c12 [Morin]

Further lines, the compound ahead of its results:

Compound | Z repl 1 | Z Repl 2 | av Z [1] | av puncta (average of raw data 1 and 2) | raw data 1 (puncta) | raw data 2 (puncta) | AvZ (average z score of seeding, SDs from the mean level of seeding) | av puncta [2] | av Z [3] | av Z [4] | raw data 1 (raw puncta) | raw data 2 (raw puncta) | av Z [5]
COc1cc(O)ccc1/C=C/C(=O)c1ccc(O)cc1 [Echinatin] | -1.092 | -0.742 | -0.917 | 9040.03 | 13242.9 | 4837.17 |  |  |  |  |  |  | 
CC(=O)c1ccc(O)c(O)c1 [3',4'-Dihydroxyacetophenone] | -0.338 | -0.997 |  |  | 22292.7 | 2117.17 | -0.667 | 12205 |  |  |  |  | 
COc1cc(/C=C/CO)ccc1O [Coniferyl alcohol] | 0.738 | 0.319 |  | 25693.5 | 35213 | 16173.9 | 0.529 |  |  |  |  |  | 
O=C1c2ccc(O)cc2OCC1c1ccc(O)cc1 (centres unmarked) [Dihydrodaidzein] | -0.987 | -0.442 | -0.715 |  | 14500 | 8042.62 |  | 11271.3 |  |  |  |  | 
O=C(O)c1ccc(O)cc1 [4-Hydroxybenzoic acid] | -0.323 | -0.785 |  |  | 22475.3 | 4386.59 | -0.554 | 13431 |  |  |  |  | 
O=C([O-])C(O)Cc1ccc(O)c(O)c1.[Na+] (centres unmarked) [Danshensu (sodium salt)] | -0.172 | -0.817 |  |  | 24282 | 4039.49 | -0.495 | 14160.8 |  |  |  |  | 
Oc1cc(O)c2c(c1)O[C@H](c1ccc(O)c(O)c1)[C@@H](O)C2 [Catechin] | -0.542 | -0.523 | -0.532 |  | 19846.5 | 7181.16 |  | 13513.8 |  |  |  |  | 
O=c1ccc2ccc(O)cc2o1 [Umbelliferone] | -1.269 | -0.533 | -0.901 | 9095.02 | 11115.4 | 7074.65 |  |  |  |  |  |  | 
C=CCc1cc(OC)c(O[C@@H](C)[C@H](O)c2ccc(O)c(OC)c2)c(OC)c1 [Myrislignan] | 1.234 | 0.299 |  | 28560.9 | 41167.3 | 15954.5 |  |  | 0.766 |  |  |  | 
O=C(O)c1ccc(O)cc1O [2,4-Dihydroxybenzoic acid] | 0.635 | -0.383 |  | 21320.5 | 33969.7 | 8671.41 | 0.126 |  |  |  |  |  | 
CCc1ccc(O)cc1O [4-Ethylresorcinol] | -1.505 | -0.734 |  | 6604.27 | 8283.51 | 4925.02 | -1.119 |  |  |  |  |  | 
Neosmitilbin | 0.198 | -0.157 |  | 19907.5 | 28721.6 | 11093.4 |  |  |  | 0.021 |  |  | 
COc1cc(O)c2c(=O)c(OC)c(-c3ccc(OC)c(O)c3)oc2c1 [Ayanin] | -1.206 | -0.903 | -1.054 | 7498.38 | 11871.6 | 3125.17 |  |  |  |  |  |  | 
O=C1N[C@@H]2C(=C[C@H](O)[C@@H](O)[C@H]2O)c2cc3c(c(O)c21)OCO3 [Narciclasine] | -2.127 | -0.234 | -1.181 | 5540.49 | 817.989 | 10263 |  |  |  |  |  |  | 
O=C(O[C@@H]1Cc2c(O)cc(O)cc2O[C@H]1c1ccc(O)c(O)c1)c1cc(O)c(O)c(O)c1 [(-)-Catechin gallate] | -0.615 | -1.07 | -0.843 | 10148.5 | 18961.3 | 1335.66 |  |  |  |  |  |  | 
COc1cc(C(=O)O)cc(O)c1O [3-O-Methylgallic acid] | -1.04 | -0.532 |  | 10472 | 13858.8 | 7085.12 | -0.786 |  |  |  |  |  | 
COc1cc(-c2coc3cc4c(c(O)c3c2=O)OCO4)cc(O)c1OC [Dichotomitin] | 0.855 | 0.348 |  | 26548.7 | 36614.6 | 16482.8 |  |  |  |  |  |  | 0.602
